One block for each molecule: values may come before it.
Key:
[1] = biological target: T1, aspartate transcarbamylase (ATCase) domain of CAD (Homo sapiens, UniProt P27708); test: colorimetric carbamoyl-aspartate formation assay with purified MBP-ATCase, CP titration at […] aspartate; type: biochemical; set-up: residues 1,915–2,225 of human CAD, N-terminal 6×His-tagged MBP fusion (MBP-ATCase)
T1 sequence (P27708 1915-2225): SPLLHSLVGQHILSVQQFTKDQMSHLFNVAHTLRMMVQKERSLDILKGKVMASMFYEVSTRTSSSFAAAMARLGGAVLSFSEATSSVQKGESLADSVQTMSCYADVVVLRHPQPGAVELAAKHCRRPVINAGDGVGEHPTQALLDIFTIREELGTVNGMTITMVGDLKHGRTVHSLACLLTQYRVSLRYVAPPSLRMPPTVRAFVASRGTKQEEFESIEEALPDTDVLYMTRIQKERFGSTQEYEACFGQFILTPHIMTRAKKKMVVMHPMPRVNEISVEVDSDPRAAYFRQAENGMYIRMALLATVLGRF

[2] = biological target: T1, aspartate transcarbamylase (ATCase) domain of CAD; test: initial-rate kinetics of purified MBP-ATCase, aspartate titration in excess CP; type: biochemical; set-up: residues 1,915–2,225 of human CAD, N-terminal 6×His-tagged MBP fusion (MBP-ATCase)
[3] = biological target: T1, aspartate transcarbamylase (ATCase) domain of CAD; test: biochemical
[4] = biological target: T1, aspartate transcarbamylase (ATCase) domain of CAD; test: initial-rate kinetics of purified MBP-ATCase, CP titration in excess aspartate (Michaelis-Menten); type: biochemical; set-up: residues 1,915–2,225 of human CAD, N-terminal 6×His-tagged MBP fusion (MBP-ATCase)
From the text: initial-rate kinetics of purified MBP-ATCase, CP titration in excess aspartate (Michaelis-Menten) on aspartate transcarbamylase (ATCase) domain of CAD | relative initial enzymatic rates of MBP-ATCase in excess aspartate and a titration of CP.

[5] = biological target: the molecule itself; test: SEC; affinity-purified MBP-ATCase on Superdex 200 16/600 in 20 mM Tris-HCl pH 7.2, 100 mM NaCl, 2% glycerol, 0.2 mM TCEP; trimer

Molecule: O=C(O)C[C@H](NC(=O)CP(=O)(O)O)C(=O)O [PALA]
- colorimetric carbamoyl-aspartate formation assay with purified MBP-ATCase, CP ti [1]: initial rates were dose-dependently decreased with nanomolar doses of the classical ATCase inhibitor, PALA (N-phosphonacetyl-L-aspartate)

Molecule: N[C@@H](CC(=O)O)C(=O)O [aspartate]
- initial-rate kinetics of purified MBP-ATCase, aspartate titration in excess CP [2]: we measured initial enzymatic rates of MBP-ATCase in excess CP, a titration of aspartate, and three concentrations of succinate

- IC50 [3]: 1350 µM
Molecule: O=C(O)CCC(=O)O [succinate]

Molecule: NC(=O)OP(=O)(O)O [carbamoyl phosphate]
- initial-rate kinetics of purified MBP-ATCase, CP titration in excess aspartate [4]: relative initial enzymatic rates of MBP-ATCase in excess aspartate and a titration of CP. This showed saturation kinetics

B1: ATCase domain of human CAD fused N-terminally to a 6×His-tagged maltose binding protein (MBP-ATCase) (domain or fragment, UniProt P27708 1915-2225, looked up)
chain: SPLLHSLVGQHILSVQQFTKDQMSHLFNVAHTLRMMVQKERSLDILKGKVMASMFYEVSTRTSSSFAAAMARLGGAVLSFSEATSSVQKGESLADSVQTMSCYADVVVLRHPQPGAVELAAKHCRRPVINAGDGVGEHPTQALLDIFTIREELGTVNGMTITMVGDLKHGRTVHSLACLLTQYRVSLRYVAPPSLRMPPTVRAFVASRGTKQEEFESIEEALPDTDVLYMTRIQKERFGSTQEYEACFGQFILTPHIMTRAKKKMVVMHPMPRVNEISVEVDSDPRAAYFRQAENGMYIRMALLATVLGRF
notes: Order of the construct: 6×His, SSG linker, MBP, two SSG linkers, TEV protease site, GS linker, CAD 1915-2225; in pET-28a(+); also called 6×His-tagged MBP-ATCase; human ATCase; source: E. coli BL21, autoinduction medium, purified (HisPur cobalt resin, SEC on Superdex 200); not shown: His6, N-terminal, kept; MBP, N-terminal, kept
- stoichiometry N [5]: 3

Reference: PMC13303085, “Succinate dehydrogenase loss suppresses pyrimidine biosynthesis via succinate-mediated inhibition of aspartate transcarbamylase” (Nature metabolism, 2026)
